The record followed here is PMC9352670 (2022).

Common to all, as to experiment: microscale thermophoresis
Background: In MST a laser heats a spot of the sample, and binding alters the fluorescence response.

Experiment [1] deals with Dm-reference-based-random-after-selection-3 (DNA, other, HFNAP: side-chain on 5' nucleobase of each coding trinucleotide, positions 19,22,25,...,61 (codon key Figure 1B)) GAAAGCAGGACTGGAGATTGCTCTTGCCCGCCCTGTTGCTATCATCCCCCACCTTAGTACCCCCAGACCGAACTAGAGCTT
The conditions noted are these: 5 mM KCl, 1 mM MgCl2, 1 mM CaCl2 added; HBS-P+ buffer, 25 °C.

For experiment [2], the system named is Dm-HS-4 (DNA, aptamer, HFNAP: side-chain on 5' nucleobase of each coding trinucleotide, positions 19,22,25,...,61 (codon key Figure 1B)) GAAAGCAGGACTGGAGATCGATTCTGGTGCTGTTGATCTCCGCCATTGTGCTCCTACCCTTCGCAGACCGAACTAGAGCTT
The conditions noted are these: 5 mM KCl, 1 mM MgCl2, 1 mM CaCl2 added; HBS-P+ buffer, 25 °C.

In experiment [3] the test system is Dm-CCS-3 (DNA, aptamer, HFNAP: side-chain on 5' nucleobase of each coding trinucleotide, positions 19,22,25,...,61 (codon key Figure 1B)) GAAAGCAGGACTGGAGATTTACATCCCCTCCAGTCGTGCCCCCTACCTTGCTGCTCGTCATGGCAGACCGAACTAGAGCTT
Conditions: 5 mM KCl, 1 mM MgCl2, 1 mM CaCl2 added; HBS-P+ buffer, 25 °C.

Experiment [4] concerns Dm-LS-1 (DNA, aptamer, HFNAP: side-chain on 5' nucleobase of each coding trinucleotide, positions 19,22,25,...,61 (codon key Figure 1B)) GAAAGCAGGACTGGAGATCCGCGCCGCTTTTATCCCTAGTCCCTTTTACCCTACTTCCCCTTACAGACCGAACTAGAGCTT
Conditions: 5 mM KCl, 1 mM MgCl2, 1 mM CaCl2 added; HBS-P+ buffer, 25 °C.

Experiment [5] deals with Dm-LS-2 (DNA, aptamer, HFNAP: side-chain on 5' nucleobase of each coding trinucleotide, positions 19,22,25,...,61 (codon key Figure 1B)) GAAAGCAGGACTGGAGATCCGCGCCGCTTTTATCCCTGTCCCCGCTACCCGTATCCCTCCTTGCAGACCGAACTAGAGCTT
The conditions noted are these: 5 mM KCl, 1 mM MgCl2, 1 mM CaCl2 added; HBS-P+ buffer, 25 °C.

Experiment [6] has as its system Dm-CVAE-without-selection-2 (DNA, aptamer, HFNAP: side-chain on 5' nucleobase of each coding trinucleotide, positions 19,22,25,...,61 (codon key Figure 1B)) GAAAGCAGGACTGGAGATTCGTTACCGCTGTTGCTCTCTTCTCAGTTGTGCTCCTTTTCCCCCCAGACCGAACTAGAGCTT
Conditions: 5 mM KCl, 1 mM MgCl2, 1 mM CaCl2 added; HBS-P+ buffer, 25 °C.

The test system of experiment [7] is Dm-HS-1 ∆ s.c. (DNA, aptamer, none (no side-chains)) GAAAGCAGGACTGGAGATCGATTCTGGTGCTGTTGATCTCCGCCATTGTGCTCCTACCCTTCACAGACCGAACTAGAGCTT
Conditions: 5 mM KCl, 1 mM MgCl2, 1 mM CaCl2 added; HBS-P+ buffer, 25 °C.

Experiment [8] concerns Dm-reference-based-random-after-selection-4 (DNA, other, HFNAP: side-chain on 5' nucleobase of each coding trinucleotide, positions 19,22,25,...,61 (codon key Figure 1B)) GAAAGCAGGACTGGAGATCATCCTTCCTTATAGCATCGGCCGTTTCCGTTGCCATCCCCCCCACAGACCGAACTAGAGCTT
The conditions noted are these: 5 mM KCl, 1 mM MgCl2, 1 mM CaCl2 added; HBS-P+ buffer, 25 °C.

Experiment [9] concerns Dm-HS-3 ∆ s.c. (DNA, aptamer, none (no side-chains)) GAAAGCAGGACTGGAGATCGATTATTGTGATTTTGATCTCCTCCATATCCCCTTCCCTACTCGCAGACCGAACTAGAGCTT
Conditions: 5 mM KCl, 1 mM MgCl2, 1 mM CaCl2 added; HBS-P+ buffer, 25 °C.

The test system of experiment [10] is Dm-HS-10 (DNA, aptamer, HFNAP: side-chain on 5' nucleobase of each coding trinucleotide, positions 19,22,25,...,61 (codon key Figure 1B)) GAAAGCAGGACTGGAGATCCTTCGCATCGGCTTTCTCCCTGTCACCCCTGTTCCCCTTGACCGCAGACCGAACTAGAGCTT
The conditions noted are these: 5 mM KCl, 1 mM MgCl2, 1 mM CaCl2 added; HBS-P+ buffer, 25 °C.

In experiment [11] the test system is Dm-reference-based-random-after-selection-1 (DNA, other, HFNAP: side-chain on 5' nucleobase of each coding trinucleotide, positions 19,22,25,...,61 (codon key Figure 1B)) GAAAGCAGGACTGGAGATCCATGTCCACCGTACCGCTACTGCTACTATTTGCTTCGGTACTGTCAGACCGAACTAGAGCTT
Conditions: 5 mM KCl, 1 mM MgCl2, 1 mM CaCl2 added; HBS-P+ buffer, 25 °C.

The subject of experiment [12] is Dm-HS-1 TCC ∆ s.c. (DNA, aptamer, no side-chain at 52 (codon 12 TCC); others as HFNAP: fluorophenyl at 19; allylamine at 22, 25, 37; alcohol at 28, 34, 49; phenol at 31, 46; cyclopentyl at 40; cyclopropyl at 43, 58; imidazole at 55, 61) GAAAGCAGGACTGGAGATCGATTCTGGTGCTGTTGATCTCCGCCATTGTGCTCCTACCCTTCACAGACCGAACTAGAGCTT
The conditions noted are these: 5 mM KCl, 1 mM MgCl2, 1 mM CaCl2 added to HBS-P+; HBS-P+ buffer, 25 °C.

Experiment [13] deals with Dm-CVAE-without-selection-1 (DNA, aptamer, HFNAP: side-chain on 5' nucleobase of each coding trinucleotide, positions 19,22,25,...,61 (codon key Figure 1B)) GAAAGCAGGACTGGAGATCCGCATCGCTTATGCTGATCTTTTCCATATTGCCTTTCCTCCTACCAGACCGAACTAGAGCTT
The conditions noted are these: 5 mM KCl, 1 mM MgCl2, 1 mM CaCl2 added; HBS-P+ buffer, 25 °C.

The subject of experiment [14] is Dm-HS-6 (DNA, aptamer, HFNAP: side-chain on 5' nucleobase of each coding trinucleotide, positions 19,22,25,...,61 (codon key Figure 1B)) GAAAGCAGGACTGGAGATTGGTAGTAACTGCTGTCCTGCTAATCATGCCGTTCACGCTGACCTCAGACCGAACTAGAGCTT
The conditions noted are these: 5 mM KCl, 1 mM MgCl2, 1 mM CaCl2 added; HBS-P+ buffer, 25 °C.

The subject of experiment [15] is Dm-reference-based-random-after-selection-5 (DNA, other, HFNAP: side-chain on 5' nucleobase of each coding trinucleotide, positions 19,22,25,...,61 (codon key Figure 1B)) GAAAGCAGGACTGGAGATCATTTCCTCCCTTATCGATAATCTCCTTTTTTATACTGCTTTTTCCAGACCGAACTAGAGCTT
Conditions: 5 mM KCl, 1 mM MgCl2, 1 mM CaCl2 added; HBS-P+ buffer, 25 °C.

As to `COc1cccc2c1C(=O)c1c(O)c3c(c(O)c1C2=O)C[C@@](O)(C(C)=O)C[C@@H]3O[C@H]1C[C@H](N)[C@H](O)[C@H](C)O1`, the Kd in [1] came out at 176500 ± 8000 nM; in [2] it was 2.05 ± 0.65 nM; in [3] it was 26.4 ± 6.9 nM; in experiment [4] it was 1110 ± 60 nM; in [5] it was 970 ± 60 nM; in experiment [6] it was 15.5 ± 1.3 nM. Further, the Kd in [8] was 107900 ± 6900 nM; in experiment [10], 64.68 ± 3.9 nM; in experiment [11], 63600 ± 2400 nM; in experiment [12], 29.9 ± 10.2 nM; in experiment [13], 13.2 ± 3.2 nM; in experiment [14], 26.86 ± 4.2 nM. This compound came in with an equilibrium dissociation constant (Kd) in experiment [15] of 119700 ± 9300 nM. The “Kd ∆ side-chains” value in experiment [7] is 2610 ± 190 nM; in experiment [9], 4450 ± 280 nM.

One may read the Kd as the free concentration of one partner at which half of the binding sites on the other are occupied at equilibrium, for simple one-to-one binding.
